Reference: article PMC12055592, “Post-symptomatic NLRP3 inhibition rescues cognitive impairment and mitigates amyloid and tau driven neurodegeneration” (Npj Dementia, 2025)

Experiments:
[1] = tested on: AIM2; test: AIM2 in vitro selectivity assay (THP1-KO-NLRP3 cells, Poly(dA:dT), IL-1β); format: cell-based; settings: n = 2; top concentration 50 µM
Method: THP1-KO-NLRP3 cells (Invivogen, San Diego, CA), resuspended in RPMI 1640 (Thermo Fisher Scientific) supplemented with 25 mM HEPES (Thermo Fisher Scientific), 10% FBS (Thermo Fisher Scientific) and 1% Penicillin-Streptomycin (Thermo Fisher Scientific), were seeded at 75,000 cells/well in a 96-well cell culture plate and treated with 50 ng/ml Phorbol 12-myristate 13-acetate (PMA, Millipore) for 24 h at 37 °C with 5% CO2. The next day, the media was replaced with fresh media containing 2.2% FBS, and cells were pretreated for 60 min with VEN-02XX (top concentration 50 µM; 5-fold titration) before DNA transfection. Lipofectamine 2000 (Thermo Fisher Scientific), for a final concentration of 2 µg/ml, and Poly(dA:dT) (Invivogen), for a final concentration of 1 µg/ml, were mixed together in OptiMEM (Thermo Fisher Scientific) 5 min before their addition to the cells. After a 24-h incubation at 37 °C with 5% CO2, supernatants were collected and IL-1β levels determined in an electrochemiluminescence immunoassay (Mesoscale Discovery).

[2] = tested on: NLRP1; test: NLRP1 in vitro selectivity assay (Normal Human Epidermal Keratinocytes, Val-boroPro, IL-1β); format: cell-based; settings: n = 2; top concentration 50 µM
Method: Normal Human Epidermal Keratinocytes pooled from juvenile donors (PromoCell, Heidelberg, Germany) were cultured in Keratinocyte Growth Medium 2 (PromoCell). Cells were seeded at 12,000 cells/well in a 96-well cell culture plate and incubated for 16 h at 37 °C with 5% CO2. The next day, the media was replaced with fresh media, and cells were pre-incubated for 60 min with VEN-02XX (top concentration 50 µM; 5-fold titration) before the addition of Val-boroPro mesylate (MedChemExpress, Monmouth Junction, NJ) at a final concentration of 7.5 µM. After a 30-h incubation at 37 °C with 5% CO2, supernatants were collected and IL-1β levels were determined in an electrochemiluminescence immunoassay (Mesoscale Discovery).

[3] = tested on: 5XFAD/Rubicon KO mice; test: Sucrose preference test in 5XFAD/Rubicon KO mice; format: in vivo, mouse
Method: (§1) 5XFAD/Rubicon KO mice received vehicle (0.5% w/v methylcellulose/0.1% w/v Tween® 80 in water) or VEN-02XX (0.01, 1, or 20 mg/kg) every day by oral gastric gavage for 9 weeks.
Basal preference to sucrose was first assessed on all enrolled mice. Individually housed mice were acclimated to the testing room for 48 h and to the two-bottle setup, where both bottles contained water, for 3 days. A 2% sucrose solution replaced the water in one bottle, and water consumption was measured for 4 consecutive days, while rotating the position of the sucrose-containing bottle. At the end of the testing period, both bottles were measured, and sucrose preference was calculated by dividing the intake from the sucrose bottle by the intake from both bottles, expressed as the percentage of sucrose preference. Preference to sucrose was re-assessed at 6- and 9-weeks following dosing with VEN-02XX. The test was performed as described above, with one bottle switched for 3% sucrose water. As before, bottles were rotated daily to reduce bias and leakage concerns, and the consumption was monitored for 4 days.

[4] = tested on: 5XFAD/Rubicon KO mice; test: Novel object recognition in 5XFAD/Rubicon KO mice; format: in vivo, mouse
Method: as §1
Mice were acclimated to the testing room for 48 h. For habituation, mice were allowed to explore an open-field box (50 cm × 50 cm) for 15 min per day over the course of 48 h. Mice were then exposed to two identical objects for 10 min on the day of testing. One hour later, a novel object was introduced, and mice were allowed to explore for 5 min during the test phase. The time spent exploring each object was quantified using AnyMaze video tracking software using the manufacturer define NOR protocol. Novel object preference (%) and the discrimination index (time with novel)/(novel + familiar) * 100) were calculated for each mouse using AnyMaze software.

[5] = tested on: 5XFAD/Rubicon KO mice; test: Brain cytokine/chemokine quantification (ECLIA) in 5XFAD/Rubicon KO mice; format: in vivo, mouse; settings: 9 weeks PO QD
Method: as §1
Brain tissue was homogenized in PBS, pH 7.4 with 1X Halt™ protease inhibitor cocktail (Thermo Fisher Scientific, Waltham, MA) using a Bead Ruptor homogenizer (Omni International, Kennesaw, GA). Homogenates were clarified by centrifugation at 10,000 × g for 10 min. The crude homogenate was used for quantification of VEN-02XX levels, as described below. Total protein concentrations were quantified from clarified supernatants in a Pierce BCA protein assay (Thermo Fisher Scientific). Cytokine and chemokine levels were quantified using an electrochemiluminescence immunoassay (ECLIA) for IL-1β (total), TNFα, IL-6 and IP-10 (U-PLEX Custom Biomarker Group 1 (mouse) assay, Meso Scale Discovery, Rockville, MD) following the manufacturer’s instructions. Neurofilament light chain plasma levels were quantified using an enzyme-linked immunosorbent assay (ELISA) from Uman Diagnostics (CAT#: 20-8002) following the manufacturer’s instructions.

Compound: CC(C)(O)CNc1nnc(-c2ccc(Cl)cc2C(F)(F)F)c2ccncc12 [VEN-02XX]
- block of IL-1β release downstream of AIM2 [1]: inability to block IL-1β release
- block of IL-1β release downstream of NLRP1 [2]: inability to block IL-1β release
- water consumption ([3]; 6 and 9 weeks, sucrose preference test): no changes in water consumption
- sucrose preference (anhedonia) ([3]; 6 weeks post-dose initiation, 20 mg/kg PO QD): significant improvement
- sucrose preference (anhedonia) ([3]; 6 weeks post-dose initiation, lower doses (0.01, 1 mg/kg) PO QD): trending reversal in the pre-dosing anhedonia
- sucrose preference (anhedonia) ([3]; 9 weeks, 1 mg/kg and 20 mg/kg PO QD, dose-dependent): significant improvements
- novel object recognition ([4]; 9 weeks, 0.01, 1, 20 mg/kg PO QD vs vehicle): striking dose-dependent improvement
- novel object recognition, learning and memory ([4]; 9 weeks, 20 mg/kg PO QD): restoration of learning and memory to near wild type control levels for most animals
- hippocampal IL-1β (total), IL-6, IP-10 and TNFα levels ([5]; 20 mg/kg, levels comparable to WT, lack of statistical significance): notable reduction in all measured inflammatory markers
- hippocampal IL-1β [5]: almost complete ablation of IL-1β within the hippocampus
